Reference: patent US9227956B2 (Pfizer Inc., priority 2013, dated 2016)

Tests used:
human PCSK9 [1] = assay: PCSK9 AlphaLISA assay, PCSK9 lowering in WT7 cells; details: WT7 cells (Huh7 stably over-expressing human PCSK9); secreted PCSK9 by AlphaLISA; overnight incubation (16-24 h); top concentration 20 μM; read-out: Cell Based PCSK9 IC50
Source text: An in-vitro AlphaLISA assay (Perkin Elmer) was developed in order to quantitate the level of PCSK9 secreted into the cell culture media following compound treatment. To detect and measure PCSK9 protein an in-house generated anti-PCSK9 antibody was coupled to AlphaLISA acceptor beads by an external vendor (PerkinElmer) and a second internally developed anti-PCSK9 antibody with an epiptope distinct from that of the acceptor beads was biotinylated in house. Streptavidin coated-donor beads (Perkin Elmer) are also included in the assay mixture which then binds the biotinylated anti-PCSK9 antibody and in the presence of PCSK9 this donor complex and acceptor beads are brought into close proximity. […] The ability of compound to modulate PCSK9 protein levels in conditioned media by AlphaLISA was assessed in the human hepatocellular carcinoma cell line Huh7, stably over-expressing human PCSK9. […] Following plasmid transfection the stable WT7 clone was identified and maintained under Zeocin selection. Compound screening was performed in 384-well plates where WT7 cells were plated at a density of 7500 cells per well in 20 μL of tissue culture media containing compound in an eleven point, 0.5 log dilution format at a high treatment concentration of 20 μM in a final volume of 0.5% DMSO. In additional to these test compound conditions each screening plate also included wells that contained 20 μM puromycin as a positive assay control defined as high percent effect, HPE, as well as wells containing media in 0.5% DMSO as a negative treatment control defined as zero percent effect, ZPE. After overnight compound incubation (16-24 h) the tissue culture media was collected and an aliquot from each sample was transferred to individual wells of a 384-well white Optiplate (Perkin Elmer). The coupled antibodies and donor beads were added to the assay plates in a buffer composed of 30 mM Tris pH 7.4, 0.02% Tween-20 and 0.02% Casein. Anti-PCSK9 acceptor beads (final concentration of 10 μg/mL) and anti-PCSK9 biotinylated antibody (final concentration of 3 nM) were added and incubated for 30 minutes at room temperature followed by the addition of the streptavidin donor beads (final concentration 40 μg/mL) for an additional 60 minutes. Additionally a standard curve was generated where AlphaLISA reagents were incubated in wells spiked with recombinant human PCSK9 diluted in tissue culture media from 5000 ng/mL to 0.6 ng/mL. […] The test compound data were converted into percent effect, using the ZPE and HPE controls as 0% and 100% activity, respectively. The equation used for converting each well reading into percent effect was:
[formula] IC50 was then calculated and reported as the midpoint in the percent effect curve in molar units and the values are reported under the Cell Based PCSK9 IC50 (μM) column header within Table 1 Biological Data. Additionally, to monitor the selectivity of compound response for PCSK9 the level of a second secreted protein, Transferrin, was measured from the same conditioned media treated with test compound by AlphaLISA. […] To detect and quantify effects on Transferrin 0.01 mL of the culture media was transferred to a 384-well white Optiplate and 0.01 mL of media was added to bring the volume to 0.02 ml. Anti-Transferrin acceptor beads were added to a final concentration of 10 μg/mL, biotinylated anti-Transferrin at 3 nM and streptavidin donor beads at 40 μg/mL. Percent effect and IC50 for Transferrin was computed in a similar manner as that described for PCSK9.

human PCSK9 [2] = assay: Cell Free PCSK9 Assay (PCSK9-luciferase RNA translated in HeLa cell lysate); assay type: biochemical; details: 30° C. for 45 minutes, luciferase readout, top concentration 100 μM
Description: In order to eliminate the permeability barrier inherent to the WT7 and SCHH cell-based assays a cell-free system was also established to access compound activity. […] The construct was then in-vitro transcribed using the MEGAscript T7 Kit (Life Technologies) and RNA subsequently purified incorporating the MEGAclear Kit (Life Technologies) according to manufacturer's protocols. […] Growth was in a 50 L wavebag at a rocker speed of 25 rpm and angle 6.1 with 5% CO2 and 0.2 LPM flow rate with cells harvested at a density of 2-2.5e6/ml. Lysates additionally contained 1 tablet of Roche cOmplete-EDTA protease inhibitors per 50 ml with tris(2-carboxyethyl)phosphine (Biovectra) substituted for dithiothreitol, and were clarified by an additional final centrifugation at 10,000 rpm in a Sorvall SS34 rotor at 4° C. for 10 minutes. Compound screening was performed in 384-well plates in an eleven point, 0.5 log dilution format at a top test compound concentration of 100 μM in a final volume of 0.5% DMSO. […] Upon assay completion 1 μL from each reaction solution was removed and transferred to a second 384-well Optiplate (Perkin Elmer) containing 24 μL of SteadyGlo (Promega) and signal intensity was measured on the Envision (Perkin Elmer) using the enhanced luminescence protocol. […] The test compound data were converted into percent effect, using the ZPE and HPE controls as 0% and 100% activity, respectively, applying Equation 1 above. IC50 was then calculated and reported as the midpoint in the percent effect curve in molar units and the values are reported under the Cell Free PCSK9 IC50 (μM) column header within Table 1 Biological Data.

PCSK9 = PCSK9 lowering in sandwich culture human hepatocytes (SCHH); assay type: cell-based; details: maximum response versus vehicle
Description: Test compound in-vitro pharmacokinetic and pharmacodynamic relationships were measured in sandwich culture primary cryopreserved human hepatocytes. Within these studies SCHH cells (BD Biosciences IVT) were thawed at 37° C. then placed on ice, after which the cells were added to pre-warmed (37° C.) In VitroGRO-HT media and centrifuged at 50×g for 3 min. The cell pellet was re-suspended to 0.8×10^6 cells/mL in InVitroGRO-CP plating medium and cell viability determined by trypan blue exclusion. On day 1, hepatocyte suspensions were plated in BioCoat 96-well plates at a density of 80000 cells/well in a volume of 0.1 mL/well. After 18 to 24 hours of incubation at 37° C. in 5% CO2, cells were overlaid with ice-cold 0.25 mg/mL BD Matrigel Matrix Phenol Red-Free in incubation medium at 0.1 mL/well. Cultures were maintained at 37° C. in 5% CO2 in InVitroGRO-HI (FBS-free media), which was replaced every 24 hours and time course treatments were initiated on day 5. Prior to compound treatment cell plates were washed 3 times with 0.1 mL/well InVitroGRO-HI and 0.09 mL of media was added back in preparation for the compound additions. 1 uL of either DMSO or compound DMSO stocks at 30 mM, 10 mM, 3 mM and 1 mM were stamped into 96 well V bottom polypropylene plates. 0.099 mL of media was added to the compound plate and mixed thoroughly before the addition of 0.010 mL from the interim compound plate to the cell plate. […] At the indicated time, 0.08 mL of media was removed from the cell plates and frozen for subsequent analysis of secreted PCSK9 by AlphaLISA and for determination of drug levels in the media by liquid chromatography-tandem mass spectrometry (LC-MS/MS). The remaining media was then aspirated and the cell layers were washed 3× with ice cold Hanks Balanced Salt Solution (HBSS) under shaking conditions to remove the matrigel overlay and plates were then stored at −20° C. for subsequent determination of drug levels in the cells by LC-MS/MS. AlphaLISA determination of PCSK9 protein levels within the conditioned media was performed ultilizing the identical reagents and detection protocols described above for the WT7 cells.

Row | IC50 (human PCSK9 [1]) | IC50 (human PCSK9 [2]) | Sandwich Culture Hepatocyte (SCHH) PCSK9 Lowering (PCSK9; at 6 h at 30 uM) | Sandwich Culture Hepatocyte (SCHH) PCSK9 Lowering (PCSK9; at 8 h at 30 μM) | Compound
1 | > 20 µM | 7.26 µM | 0% at 6 h at 30 uM | – | CCOC(=O)OC(CC)n1nnc(-c2c(-c3ccc(C(=O)N(c4ncccc4C)[C@@H]4CCCNC4)cc3)cnn2C)n1 (single isomer, unassigned) [Example 32]
2 | > 20 µM | 23.7 µM | 32% at 6 h at 30 uM | – | CCOC(=O)OC(CC)n1nnc(-c2c(-c3ccc(C(=O)N(c4ncccc4C)[C@@H]4CCCNC4)cc3)cnn2C)n1 (single isomer, unassigned) [Example 33]
3 | 2.3 µM | 0.8 µM | – | 83% at 8 h at 30 μM | COC(=O)c1c(-c2ccc(C(=O)N(c3ncccc3C)[C@@H]3CCCNC3)cc2)cnn1C [Example 13, Methyl 1-methyl-4-(4-{(3-methylpyridin-2-yl)[(3R)-piperidin-3-yl]carbamoyl}phenyl)-1H-pyrazole-5-carboxylate]
4 | > 20 µM | 7.68 µM | 16% at 6 h at 30 uM | – | CCC(=O)OC(C(C)C)n1nnc(-c2c(-c3ccc(C(=O)N(c4ncccc4C)[C@@H]4CCCNC4)cc3)cnn2C)n1 (single isomer, unassigned) [Example 48]
5 | > 20 µM | 3.56 µM | 48% at 6 h at 30 uM | – | Cc1cccnc1N(C(=O)c1ccc(-c2cnn(C)c2-c2nnn(C(C)OC(=O)C(C)C)n2)cc1)[C@@H]1CCCNC1 (single isomer, unassigned) [Example 51]
6 | – | 2.19 µM | 3% at 6 h at 30 uM | – | Cc1cccnc1N(C(=O)c1ccc(-c2cnn(C)c2-c2nnn(C(C)OC(=O)OC(C)C)n2)cc1)[C@@H]1CCCNC1 (single isomer, unassigned) [Example 38]
7 | > 19.4 µM | 15.4 µM | 35% at 6 h at 30 uM | – | CCC(OC(=O)OC(C)C)n1nnc(-c2c(-c3ccc(C(=O)N(c4ncccc4C)[C@@H]4CCCNC4)cc3)cnn2C)n1 (single isomer, unassigned) [Example 41]
8 | > 20 µM | 10.7 µM | 25% at 6 h at 30 uM | – | CCC(OC(=O)C(C)C)n1nnc(-c2c(-c3ccc(C(=O)N(c4ncccc4C)[C@@H]4CCCNC4)cc3)cnn2C)n1 (single isomer, unassigned) [Example 52]
9 | – | 0.592 µM | 0% at 6 h at 30 uM | – | Cc1cccnc1N(C(=O)c1ccc(-c2cnn(C)c2-c2nnn(C(C)OC(=O)OC(C)C)n2)cc1)[C@@H]1CCCNC1 (single isomer, unassigned) [Example 39]
10 | > 16.7 µM | – | – | 11% at 8 h at 30 uM | CCOC(=O)O[C@@H](C)n1nnc(-c2c(-c3ccc(C(=O)N(c4ncccc4C)[C@@H]4CCCNC4)cc3)cnn2C)n1 [Example 30, ethyl (1S)-1-{5-[1-methyl-4-(4-{(3-methylpyridin-2-yl)[(3R)-piperidin-3-yl]carbamoyl}phenyl)-1H-pyrazol-5-yl]-2H-tetrazol-2-yl}ethyl carbonate]
11 | > 20 µM | – | 72% at 6 h at 30 uM | – | CCOC(=O)OC(C)N(C(=O)c1c(-c2ccc(C(=O)N(c3ncccc3C)[C@@H]3CCCNC3)cc2)cnn1C)S(C)(=O)=O (stereo partly drawn) [Example 29, ethyl 1-[{[1-methyl-4-(4-{(3-methylpyridin-2-yl)[(3R)-piperidin-3-yl]carbamoyl}phenyl)-1H-pyrazol-5-yl]carbonyl}methylsulfonyl)amino]ethyl carbonate]
12 | > 20 µM | – | 12% at 6 h at 30 uM | – | CCC(=O)OC(CC)n1nnc(-c2c(-c3ccc(C(=O)N(c4ncccc4C)[C@@H]4CCCNC4)cc3)cnn2C)n1 (single isomer, unassigned) [Example 47]
13 | > 20 µM | – | 57% at 6 h at 30 uM | – | CCOC(=O)OC(C)n1nnnc1-c1c(-c2ccc(C(=O)N(c3ncccc3C)[C@@H]3CCCNC3)cc2)cnn1C (stereo partly drawn) [Example 21]
14 | – | 1.7 µM | – | 80% at 8 h at 30 μM | CCOC(=O)c1c(-c2ccc(C(=O)N(c3ncccc3Cl)[C@@H]3CCCNC3)cc2)cnn1C [Example 6, ethyl 4-(4-{(3-chloropyridin-2-yl)[(3R)-piperidin-3-yl]carbamoyl}phenyl)-1-methyl-1H-pyrazole-5-carboxylate]
15 | 4.5 µM | – | – | 54% at 8 h at 30 μM | CCOC(=O)OC(C)OC(=O)c1c(-c2ccc(C(=O)N(c3nccc4ccn(C)c34)[C@@H]3CCCNC3)cc2)cnn1C (stereo partly drawn) [Example 14, 1-[(ethoxycarbonyl)oxy]ethyl 1-methyl-4-(4-{(1-methyl-1H-pyrrolo[2,3-c]pyridin-7-yl)[(3R)-piperidin-3-yl]carbamoyl}phenyl)-1H-pyrazole-5-carboxylate]
16 | > 20 µM | – | – | 19% at 8 h at 30 uM | CCOC(=O)O[C@H](C)n1nnc(-c2c(-c3ccc(C(=O)N(c4ncccc4C)[C@@H]4CCCNC4)cc3)cnn2C)n1 [Example 31, ethyl (1R)-1-{5-[1-methyl-4-(4-{(3-methylpyridin-2-yl)[(3R)-piperidin-3-yl]carbamoyl}phenyl)-1H-pyrazol-5-yl]-2H-tetrazol-2-yl}ethyl carbonate]
